{
  "source": "patent US20240150356A1",
  "about": "“Pyrimidine amide compounds and use thereof” (ALPHALA CO., LTD., priority 2019, published 2024)",
  "system": "Hep3B cells (hepatocellular carcinoma cell line)",
  "experiment": "In vitro MTS cell viability assay (NCI-60 methodology), Hep3B",
  "assay_type": "cell-based",
  "conditions": "Homo sapiens, 48 h, 2 days drug incubation, 50% reduction vs time zero, read-out: Hep3B LC50",
  "summary_of_the_method": "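Hep3B cells given five 2-fold dilutions of compound for 2 days, with viability by MTS measured at time zero and at end. LC50 is the concentration giving a 50% fall in viable cells relative to the start of treatment, per NCI-60 formula.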",
  "note": "Read-outs that look alike come from different tables or passages of the source.",
  "data": [
    {"smiles": "O=C(Nc1nc(-c2ccc(F)nc2)nc2c1cnn2C1CCCC1)c1ccc([N+](=O)[O-])s1", "note": "[Compound 8-8, N-(1-cyclopentyl-6-(6-fluoropyridin-3-yl)-1H-pyrazolo[3,4-d]pyrimidin-4-yl)-5-nitrothiophene-2-carboxamide]", "values": [
      {"measurement": "LC50", "setting": "Table 8, MTS", "result": 1170, "unit": "nM"}
    ]},
    {"smiles": "O=C(Nc1nc(-c2cccs2)nc2c1cnn2C1CCCCC1)c1ccc([N+](=O)[O-])s1", "note": "[Compound 10-5, N-(1-cyclohexyl-6-(thiophen-2-yl)-1H-pyrazolo[3,4-d]pyrimidin-4-yl)-5-nitrothiophene-2-carboxamide]", "values": [
      {"measurement": "LC50", "setting": "Table 10, MTS", "result": 750, "unit": "nM"}
    ]},
    {"smiles": "CC(=O)N1CC[C@H](n2ncc3c(NC(=O)c4ccc([N+](=O)[O-])s4)nc(-c4ccc(F)nc4)nc32)C1", "note": "[Compound 8-2, (S)—N-(1-(1-acetylpyrrolidin-3-yl)-6-(6-fluoropyridin-3-yl)-1H-pyrazolo[3,4-d]pyrimidin-4-yl)-5-nitrothiophene-2-carboxamide]", "values": [
      {"measurement": "LC50", "setting": "Table 8, MTS", "result": "> 3000", "unit": "nM"}
    ]},
    {"smiles": "CCOCCOc1ccc(-c2nc(NC(=O)c3ccc([N+](=O)[O-])s3)c3cnn(-c4ccc(C)cc4)c3n2)cn1", "note": "[Compound 6-13, N-(6-(6-(2-ethoxyethoxy)pyridin-3-yl)-1-(p-tolyl)-1H-pyrazolo[3,4-d]pyrimidin-4-yl)-5-nitrothiophene-2-carboxamide]", "values": [
      {"measurement": "LC50", "setting": "Table 6, MTS", "result": 510, "unit": "nM"}
    ]},
    {"smiles": "Cc1noc(C)c1-c1nc(NC(=O)c2ccc([N+](=O)[O-])s2)c2cnn(C3CCCCC3)c2n1", "note": "[Compound 10-9, N-(1-cyclohexyl-4-(3,5-dimethylisoxazol-4-yl)-1H-pyrazolo[3,4,d]pyrimidin-4-yl)-5-nitrothiophene-2-carboxamide]", "values": [
      {"measurement": "LC50", "setting": "Table 10, MTS", "result": 1070, "unit": "nM"}
    ]},
    {"smiles": "COc1ccc(-n2ncc3c(NC(=O)c4ccc([N+](=O)[O-])s4)nc(OC4CCCCC4)nc32)cc1", "note": "[Compound 6-16, N-(6-(cyclohexyloxy)-1-(4-methoxyphenyl)-1H-pyrazolo[3,4-d]pyrimidin-4-yl)-5-nitrothiophene-2-carboxamide]", "values": [
      {"measurement": "LC50", "setting": "Table 6, MTS", "result": 1360, "unit": "nM"}
    ]},
    {"smiles": "CC(C)n1ncc2c(NC(=O)c3ccc([N+](=O)[O-])s3)nc(-c3ccc(C(C)(C)C)cc3)nc21", "note": "[Compound 1-23, N-(6-(4-(tert-butyl)phenyl)-1-isopropyl-1H-pyrazolo[3,4-d]pyrimidin-4-yl)-5-nitrothiophene-2-carboxamide]", "values": [
      {"measurement": "LC50", "setting": "Table 1, MTS", "result": 1570, "unit": "nM"}
    ]},
    {"smiles": "CC1(C)CCC(n2ncc3c(NC(=O)c4ccc([N+](=O)[O-])s4)nc(-c4ccc(Cl)nc4)nc32)CC1", "note": "[Compound 10-64, N-(6-(6-chloropyridin-3-yl)-1-(4,4-dimethylcyclohexyl)-1H-pyrazolo[3,4-d]pyrimidin-4-yl)-5-nitrothiophene-2-carboxamide]", "values": [
      {"measurement": "LC50", "setting": "Table 10, MTS", "result": 570, "unit": "nM"}
    ]},
    {"smiles": "CC(C)(C)c1ccc(-n2ncc3c(NC(=O)c4ccc([N+](=O)[O-])s4)nc(-n4ccnc4)nc32)cc1", "note": "[Compound 6-74, N-(1-(4-(tert-butyl)phenyl)-6-(1H-imidazol-1-yl)-1H-pyrazolo[3,4-d]pyrimidin-4-yl)-5-nitrothiophene-2-carboxamide]", "values": [
      {"measurement": "LC50", "setting": "Table 6, MTS", "result": 330, "unit": "nM"}
    ]},
    {"smiles": "CCOCCOc1ccc(-c2nc(NC(=O)c3ccc([N+](=O)[O-])s3)c3cnn(-c4ccc(Cl)cc4)c3n2)cn1", "note": "[Compound 6-52, N-(1-(4-chlorophenyl)-6-(6-(2-ethoxyethoxy)pyridin-3-yl)-1H-pyrazolo[3,4-d]pyrimidin-4-yl)-5-nitrothiophene-2-carboxamide]", "values": [
      {"measurement": "LC50", "setting": "Table 6, MTS", "result": 220, "unit": "nM"}
    ]},
    {"smiles": "COc1ccc(-n2ncc3c(NC(=O)c4ccc([N+](=O)[O-])s4)nc(-c4ccc5c(c4)OCO5)nc32)cc1", "note": "[Compound 6-24, N-(6-(benzo[d][1,3]dioxol-5-yl)-1-(4-methoxyphenyl)-1H-pyrazolo[3,4-d]pyrimidin-4-yl)-5-nitrothiophene-2-carboxamide]", "values": [
      {"measurement": "LC50", "setting": "Table 6, MTS", "result": 190, "unit": "nM"}
    ]},
    {"smiles": "CCC(C)(C)c1ccc(-c2nc(NC(=O)c3ccc([N+](=O)[O-])s3)c3cnn(-c4ccc(OC(F)(F)F)cc4)c3n2)cc1", "note": "[Compound 6-87]", "values": [
      {"measurement": "LC50", "setting": "Table 6, MTS", "result": "> 2000", "unit": "nM"}
    ]},
    {"smiles": "O=C(Nc1nc(-c2ccc(F)cc2Cl)nc2c1cnn2C1CCCCC1)c1ccc([N+](=O)[O-])s1", "note": "[Compound 10-46, N-(6-(2-chlor-4-fluorophenyl)-1-cyclohexyl-1H-pyrazolo[3,4-d]pyrimidin-4-yl)-5-nitrothiophene-2-carboxamide]", "values": [
      {"measurement": "LC50", "setting": "Table 10, MTS", "result": 1030, "unit": "nM"}
    ]},
    {"smiles": "CCOCCOC(=O)N1CCC(n2ncc3c(NC(=O)c4ccc([N+](=O)[O-])s4)nc(-c4ccc(Cl)cc4)nc32)CC1", "note": "[Compound 9-13, 2-ethoxyethyl 4-(6-(4-chlorophenyl)-4-(5-nitrothiophene-2-carboxamido)-1H-pyrazolo [3,4-d]pyrimidin-1-yl)piperidine-1-carboxylate]", "values": [
      {"measurement": "LC50", "setting": "Table 9, MTS", "result": 1620, "unit": "nM"}
    ]},
    {"smiles": "C=CC(=O)Nc1ccc(-n2ncc3c(NC(=O)c4ccc([N+](=O)[O-])s4)nc(-c4ccc(F)cc4)nc32)cc1", "note": "[Compound 7-19, N-(1-(4-acrylamidophenyl)-6-(4-fluorophenyl)-1H-pyrazolo[3,4-d]pyrimidin-4-yl)-5-nitrothiophene-2-carboxamide]", "values": [
      {"measurement": "LC50", "setting": "Table 7, MTS", "result": 190, "unit": "nM"}
    ]},
    {"smiles": "Cc1nn(C)c2c(NC(=O)c3ccc([N+](=O)[O-])s3)nc(-c3cccc(C(F)(F)F)c3)nc12", "note": "[Compound 3-2, N-(1,3-dimethyl-5-(3-(trifluoromethyl)phenyl)-1H-pyrazolo[4,3-d]pyrimidin-7-yl)-5-nitrothiophene-2-carboxamide]", "values": [
      {"measurement": "LC50", "setting": "Table 3, MTS", "result": 860, "unit": "nM"}
    ]},
    {"smiles": "CC(C)(C)n1ncc2c(NC(=O)c3ccc([N+](=O)[O-])s3)nc(-c3ccc(C(F)(F)F)cc3)nc21", "note": "[Compound 1-26, N-(1-(tert-butyl)-6-(4-(trifluoromethyl)phenyl)-1H-pyrazolo[3,4,d]pyrimidin-4-yl)-5-nitrothiophene-2-carboxamide]", "values": [
      {"measurement": "LC50", "setting": "Table 1, MTS", "result": 790, "unit": "nM"}
    ]},
    {"smiles": "O=C(Nc1nc(-c2ccccc2F)nc2c1cnn2-c1ccc(F)cc1)c1ccc([N+](=O)[O-])s1", "note": "[Compound 6-113, N-(6-(2-fluorophenyl)-1-(4-fluorophenyl)-1H-pyrazolo[3,4-d]pyrimidin-4-yl)-5-nitrothiophene-2-carboxamide]", "values": [
      {"measurement": "LC50", "setting": "Table 6, MTS", "result": 400, "unit": "nM"}
    ]},
    {"smiles": "CCCOC[C@@H]1CCCN1c1nc(NC(=O)c2ccc([N+](=O)[O-])s2)c2cnn(-c3ccc(F)cc3)c2n1", "note": "[Compound 6-105, (S)—N-(1-(4-fluorophenyl)-6-(2-(propoxymethyl)pyrrolidin-1-yl)-1H-pyrazolo[3,4-d]pyrimidin-4-yl)-5-nitrothiophene-2-carboxamide]", "values": [
      {"measurement": "LC50", "setting": "Table 6, MTS", "result": 420, "unit": "nM"}
    ]},
    {"smiles": "CCOCCOCCOc1ccc(-c2nc(NC(=O)c3ccc([N+](=O)[O-])s3)c3cnn(C4CCCCC4)c3n2)cn1", "note": "[Compound 10-53, N-(1-cyclohexyl-6-(6-(2-(2-ethoxyethoxy)ethoxy)pyridin-3-yl)-1H-pyrazolo[3,4-d]pyrimidin-4-yl)-5-nitrothiophene-2-carboxamide]", "values": [
      {"measurement": "LC50", "setting": "Table 10, MTS", "result": 1230, "unit": "nM"}
    ]},
    {"smiles": "O=C(Nc1nc(N2CCC(F)(F)C2)nc2c1cnn2-c1ccc(F)cc1)c1ccc([N+](=O)[O-])s1", "note": "[Compound 6-97, N-(6-(3,3-difluoropyrrolidin-1-yl)-1-(4-fluorophenyl)-1H-pyrazolo[3,4-d]pyrimidin-4-yl)-5-nitrothiophene-2-carboxamide]", "values": [
      {"measurement": "LC50", "setting": "Table 6, MTS", "result": 570, "unit": "nM"}
    ]},
    {"smiles": "CC1CC(C)CC(n2ncc3c(NC(=O)c4ccc([N+](=O)[O-])s4)nc(-c4ccc(Cl)cc4)nc32)C1", "note": "(centres unmarked) [Compound 10-69, N-(6-(4-chlorophenyl)-1-(3,5-dimethylcyclohexyl)-1H-pyrazolo[3,4-d]pyrimidin-4-yl)-5-nitrothiophene-2-carboxamide]", "values": [
      {"measurement": "LC50", "setting": "Table 10, MTS", "result": 860, "unit": "nM"}
    ]},
    {"smiles": "COCCOc1ccc(-c2nc(NC(=O)c3ccc([N+](=O)[O-])s3)c3cnn(C4CCCCC4)c3n2)cc1", "note": "[Compound 10-50, N-(1-cyclohexyl-6-(4-(2-methoxyethoxy)phenyl)-1H-pyrazolo[3,4-d]pyrimidin-4-yl)-5-nitrothiophene-2-carboxamide]", "values": [
      {"measurement": "LC50", "setting": "Table 10, MTS", "result": 2640, "unit": "nM"}
    ]}
  ]
}
